Values after ≈ are worked out from the molar mass of the structure shown. Like-named read-outs stand apart in the source and are kept apart here. Bounds are passed on as bounds.

As a reminder, the MIC90 is an inhibitory concentration at the 90% level, which refers to growth in some studies and to a panel of isolates in others.

Common to all, as to test: In vitro antibacterial activity, broth microdilution MIC90
Holding throughout (type): cell-based
(In general: Broth dilution looks for growth in wells or tubes with falling amounts of substance.)

One assay concerns Moraxella catarrhalis. The protocol:
(§1) MIC90 was measured by broth microdilution method based on CLSI standards [reference: Clinical and Laboratory Standards Institute Document. (2000) Methods for Dilution Antimicrobial Susceptibility Test for Bacteria that Grow Aerobically-Fifth Edition: M7-A5. CLSI, Villanova, Pa.].
(§2) Activities of 12 strains including Staphylococcus aureus, Methicillin Resistant Staphylococcus aureus, Staphylococcus epidermidis, Methicillin Resistant Staphylococcus epidermidis, Enterococcus faecalis, Vancomycin Resistant Enterococcus faecalis, Linezolid and Vancomycin Resistant Enterococcus faecalis, Enterococcus faecium, Vancomycin Resistant Enterococcus faecium, Linezolid and Vancomycin Resistant Enterococcus faecium, and Moraxella catarrhalis, were measured, and results are shown in Table 1 below.
(§3) The final concentration of test material in the antibacterial test was from 0.063 μg/mL (minimum) to 128 μg/mL (maximum), and the final concentration of DMSO used as an excipient was 2.5% (V/V). Linezolid represented by Formula B below (manufactured by Pfizer) was used as a control and bacterial activity thereof was compared with those of the test materials.

Assay [1] relates to Linezolid and Vancomycin Resistant Enterococcus faecium (strain 11). The protocol: as §1, §2, §3
The subject of assay [2] is Linezolid and Vancomycin Resistant Enterococcus faecalis. The protocol:
as §1, §2, §3

Assay [3] has as its system Vancomycin Resistant Enterococcus faecium. The protocol:
as §1, §2, §3

In assay [4] the test system is Vancomycin Resistant Enterococcus faecalis. Here is the method:
as §1, §2, §3

Assay [5] concerns Staphylococcus epidermidis. Here is the method: as §1, §2, §3
The subject of another assay is Enterococcus faecium. Here is the method:
as §1, §2, §3

The test system of assay [6] is Methicillin Resistant Staphylococcus epidermidis. Here is the method:
as §1, §2, §3

Assay [7] deals with Linezolid and Vancomycin Resistant Enterococcus faecium (strain 10). Here is the method: as §1, §2, §3
A further assay concerns Enterococcus faecalis. The protocol: as §1, §2, §3
Assay [8] has as its system Methicillin Resistant Staphylococcus aureus. The protocol:
as §1, §2, §3

The subject of another assay is Staphylococcus aureus. Here is the method:
as §1, §2, §3

On to `CC(=O)NC[C@H]1CN(c2ccc(-c3ccc(N4C=NN(C(N)=O)CC4)nc3)c(F)c2)C(=O)O1` [Compound 17], for which the MIC90 was 2 µg/mL (≈ 4.39 µM) against Moraxella catarrhalis (Moraxella catarrhalis); 2 µg/mL (≈ 4.39 µM) in [1] (Enterococcus faecium); 1 µg/mL (≈ 2.2 µM) in assay [2] (Enterococcus faecalis); 0.25 µg/mL (≈ 0.549 µM) in assay [3] (Enterococcus faecium); 0.25 µg/mL (≈ 0.549 µM) in assay [4] (Enterococcus faecalis); 0.25 µg/mL (≈ 0.549 µM) in [5] (Staphylococcus epidermidis). The MIC90 against Enterococcus faecium (Enterococcus faecium) is 0.25 µg/mL (≈ 0.549 µM); in assay [6] (Staphylococcus epidermidis), 0.5 µg/mL (≈ 1.1 µM); in [7] (Enterococcus faecium), 2 µg/mL (≈ 4.39 µM); in the assay on Enterococcus faecalis (Enterococcus faecalis), 0.25 µg/mL (≈ 0.549 µM); in assay [8] (Staphylococcus aureus) it was 0.5 µg/mL (≈ 1.1 µM); against Staphylococcus aureus (Staphylococcus aureus) it was 0.125 µg/mL (≈ 0.274 µM).
`CC(=O)NC[C@H]1CN(c2ccc(-c3ccc(N4CCNC=N4)nc3)c(F)c2)C(=O)O1` [Compound 53]: the MIC90 against Moraxella catarrhalis (Moraxella catarrhalis) was 4 µg/mL (≈ 9.7 µM); in assay [1] (Enterococcus faecium), 4 µg/mL (≈ 9.7 µM); in [2] (Enterococcus faecalis), 4 µg/mL (≈ 9.7 µM); in [3] (Enterococcus faecium), 1 µg/mL (≈ 2.42 µM); in assay [4] (Enterococcus faecalis), 1 µg/mL (≈ 2.42 µM); in assay [5] (Staphylococcus epidermidis) it was 1 µg/mL (≈ 2.42 µM). The MIC90 against Enterococcus faecium (Enterococcus faecium) was found to be 1 µg/mL (≈ 2.42 µM); in assay [6] (Staphylococcus epidermidis), 2 µg/mL (≈ 4.85 µM); in assay [7] (Enterococcus faecium), 4 µg/mL (≈ 9.7 µM); against Enterococcus faecalis (Enterococcus faecalis), 1 µg/mL (≈ 2.42 µM); in assay [8] (Staphylococcus aureus), 2 µg/mL (≈ 4.85 µM); against Staphylococcus aureus (Staphylococcus aureus), 1 µg/mL (≈ 2.42 µM).
For `O=C1O[C@@H](COc2ccon2)CN1c1ccc(-c2ccc(C3=NOCCN3)nc2)c(F)c1` [Compound 68], the MIC90 against Moraxella catarrhalis (strain 12, M. catarrhalis) was over 128 µg/mL; in assay [1] (strain 11, E. faecium VanA LR), over 128 µg/mL; in [2] (strain 7, E. faecalis VanA LR), over 128 µg/mL; in assay [3] (strain 9, E. faecium VanA), 1 µg/mL (≈ 2.28 µM); in assay [4] (strain 6, E. faecalis VanA), 2 µg/mL (≈ 4.55 µM); in [5] (strain 3, S. epidermidis) it was 1 µg/mL (≈ 2.28 µM). The MIC90 in the assay on Enterococcus faecium (strain 8, E. faecium) was 0.25 µg/mL (≈ 0.569 µM); in assay [6] (strain 4, S. epidermidis MR), 2 µg/mL (≈ 4.55 µM); in assay [7] (strain 10, E. faecium VanA LR), over 128 µg/mL; with Enterococcus faecalis (strain 5, E. faecalis) it was 1 µg/mL (≈ 2.28 µM); in [8] (strain 2, S. aureus MR) it was 1 µg/mL (≈ 2.28 µM); against Staphylococcus aureus (strain 1, S. aureus), 0.5 µg/mL (≈ 1.14 µM).
Take `Cl.NCC(=O)N1CCN(c2ccc(-c3ccc(N4C[C@H](COc5ccon5)OC4=O)cc3F)cn2)C=N1` [Compound 48]: the MIC90 with Moraxella catarrhalis (strain 12, M. catarrhalis) came out at 32 µg/mL; in assay [1] (strain 11, E. faecium VanA LR), 32 µg/mL; in assay [2] (strain 7, E. faecalis VanA LR), 32 µg/mL; in assay [3] (strain 9, E. faecium VanA), 2 µg/mL; in [4] (strain 6, E. faecalis VanA), 4 µg/mL; in assay [5] (strain 3, S. epidermidis), 1 µg/mL. For the same molecule, the MIC90 in the assay on Enterococcus faecium (strain 8, E. faecium) is 1 µg/mL; in assay [6] (strain 4, S. epidermidis MR) it was 4 µg/mL; in assay [7] (strain 10, E. faecium VanA LR), 16 µg/mL; in the assay with Enterococcus faecalis (strain 5, E. faecalis), 4 µg/mL; in assay [8] (strain 2, S. aureus MR), 1 µg/mL; against Staphylococcus aureus (strain 1, S. aureus), 0.5 µg/mL.
As for `CC(=O)NC[C@H]1CN(c2ccc(-c3ccc(N4C=NNCC4)nc3)c(F)c2)C(=O)O1` [Compound 2], the MIC90 is 4 µg/mL (≈ 9.7 µM) in the assay with Moraxella catarrhalis (Moraxella catarrhalis); 2 µg/mL (≈ 4.85 µM) in assay [1] (Enterococcus faecium); 2 µg/mL (≈ 4.85 µM) in assay [2] (Enterococcus faecalis); 0.5 µg/mL (≈ 1.21 µM) in assay [3] (Enterococcus faecium); 0.5 µg/mL (≈ 1.21 µM) in assay [4] (Enterococcus faecalis); 0.5 µg/mL (≈ 1.21 µM) in [5] (Staphylococcus epidermidis). The MIC90 with Enterococcus faecium (Enterococcus faecium) worked out at 0.5 µg/mL (≈ 1.21 µM); in [6] (Staphylococcus epidermidis) it was 1 µg/mL (≈ 2.42 µM); in assay [7] (Enterococcus faecium), 2 µg/mL (≈ 4.85 µM); against Enterococcus faecalis (Enterococcus faecalis), 0.5 µg/mL (≈ 1.21 µM); in assay [8] (Staphylococcus aureus) it was 1 µg/mL (≈ 2.42 µM); against Staphylococcus aureus (Staphylococcus aureus) it was 0.5 µg/mL (≈ 1.21 µM).
Take `CN1CCON=C1c1ccc(-c2ccc(N3C[C@H](CO)OC3=O)cc2F)cn1` [Compound 71]: the MIC90 in the assay with Moraxella catarrhalis (Moraxella catarrhalis, strain 12, M. catarrhalis, read-out: MIC90) was 8 µg/mL (≈ 20.7 µM); in assay [1] (Enterococcus faecium, strain 11, E. faecium VanA LR, read-out: MIC90), 16 µg/mL (≈ 41.4 µM); in assay [2] (Enterococcus faecalis, strain 7, E. faecalis VanA LR, read-out: MIC90) it was 16 µg/mL (≈ 41.4 µM); in [3] (Enterococcus faecium, strain 9, E. faecium VanA, read-out: MIC90), 2 µg/mL (≈ 5.18 µM); in assay [4] (Enterococcus faecalis, strain 6, E. faecalis VanA, read-out: MIC90) it was 2 µg/mL (≈ 5.18 µM); in assay [5] (Staphylococcus epidermidis, strain 3, S. epidermidis, read-out: MIC90) it was 2 µg/mL (≈ 5.18 µM). Besides, the MIC90 was found to be 2 µg/mL (≈ 5.18 µM) in the assay with Enterococcus faecium (Enterococcus faecium, strain 8, E. faecium, read-out: MIC90); 4 µg/mL (≈ 10.4 µM) in assay [6] (Staphylococcus epidermidis, strain 4, S. epidermidis MR, read-out: MIC90); 8 µg/mL (≈ 20.7 µM) in assay [7] (Enterococcus faecium, strain 10, E. faecium VanA LR, read-out: MIC90); 4 µg/mL (≈ 10.4 µM) in the assay with Enterococcus faecalis (Enterococcus faecalis, strain 5, E. faecalis, read-out: MIC90); 4 µg/mL (≈ 10.4 µM) in [8] (Staphylococcus aureus, strain 2, S. aureus MR, read-out: MIC90); 2 µg/mL (≈ 5.18 µM) in the assay with Staphylococcus aureus (Staphylococcus aureus, strain 1, S. aureus, read-out: MIC90).
Regarding `CC(=O)NC[C@H]1CN(c2ccc(-c3ccc(N4C=NN(C(=O)C5COC(C)(C)O5)CC4)nc3)c(F)c2)C(=O)O1` (stereo partly drawn) [Compound 20], the MIC90 in the assay with Moraxella catarrhalis (Moraxella catarrhalis) came to 8 µg/mL (≈ 14.8 µM); in [1] (Enterococcus faecium) it was 8 µg/mL (≈ 14.8 µM); in assay [2] (Enterococcus faecalis), 8 µg/mL (≈ 14.8 µM); in [3] (Enterococcus faecium) it was 2 µg/mL (≈ 3.7 µM); in [4] (Enterococcus faecalis), 2 µg/mL (≈ 3.7 µM); in assay [5] (Staphylococcus epidermidis) it was 4 µg/mL (≈ 7.4 µM). The MIC90 is 2 µg/mL (≈ 3.7 µM) in the assay with Enterococcus faecium (Enterococcus faecium); 4 µg/mL (≈ 7.4 µM) in [6] (Staphylococcus epidermidis); 8 µg/mL (≈ 14.8 µM) in [7] (Enterococcus faecium); 2 µg/mL (≈ 3.7 µM) against Enterococcus faecalis (Enterococcus faecalis); 8 µg/mL (≈ 14.8 µM) in assay [8] (Staphylococcus aureus); 2 µg/mL (≈ 3.7 µM) in the assay on Staphylococcus aureus (Staphylococcus aureus).
